Results from BindingDB's records for patent US10774051 (SHIONOGI & CO., LTD., 2020).
pIC50: −log10 of the molar value.

Biological target: T1, P2X purinoceptor 7 [Y155H,R270H] (Homo sapiens, UniProt Q99572, R270H/Y155H)
T1 construct: gene P2RX7
Experiment: Evaluation of a Human P2X7 Receptor Inhibitory Activity
Method: Stably expressing cell line (1321N1 cell transfected with the human P2X7 receptor gene (GenBank accession number NM_002562.5 including T606C and G952A SNP)) was used. The cells were seeded in a 384-well microtiter plate at a concentration of 8000 cells/well and cultured in the medium (10% fetal bovine serum, 25 mM HEPES, 1% penicillin and streptomycin in DMEM) for one day at 37° C. under 5% carbon dioxide atmosphere. After replacing with 20 μL of the HBSS buffer (20 mM HEPES, 55.6 mM D-glucose, 1×HBSS(−), pH7.4-7.5), 15 μL of 17.3 μM Yo-Pro solution in the HBSS buffer was added. The plate was placed in high-throughput cellular screening system FLIPR TETRA (Molecullar Devices, LLC.) and 15 μL of 130 μM BzATP solution in the HBSS buffer was added. Measurement of fluorescence intensity by FLIPR TETRA was started. After eight minutes, 15 μL of DMSO solutions containing different concentrations of the compound of the present invention as prepared by dilution with the HBSS buffer were dispensed to each well through the built-in automatic dispenser, and the measurement of fluorescence intensity was continued for 20 minutes. […] Changing values of fluorescence intensity by the compound of the present invention were calculated by difference between maximum and minimum fluorescence intensity for 20 minutes. IC50 was calculated using logistic approximation.

T1 sequence (Q99572 whole entry Y155H/R270H, looked up): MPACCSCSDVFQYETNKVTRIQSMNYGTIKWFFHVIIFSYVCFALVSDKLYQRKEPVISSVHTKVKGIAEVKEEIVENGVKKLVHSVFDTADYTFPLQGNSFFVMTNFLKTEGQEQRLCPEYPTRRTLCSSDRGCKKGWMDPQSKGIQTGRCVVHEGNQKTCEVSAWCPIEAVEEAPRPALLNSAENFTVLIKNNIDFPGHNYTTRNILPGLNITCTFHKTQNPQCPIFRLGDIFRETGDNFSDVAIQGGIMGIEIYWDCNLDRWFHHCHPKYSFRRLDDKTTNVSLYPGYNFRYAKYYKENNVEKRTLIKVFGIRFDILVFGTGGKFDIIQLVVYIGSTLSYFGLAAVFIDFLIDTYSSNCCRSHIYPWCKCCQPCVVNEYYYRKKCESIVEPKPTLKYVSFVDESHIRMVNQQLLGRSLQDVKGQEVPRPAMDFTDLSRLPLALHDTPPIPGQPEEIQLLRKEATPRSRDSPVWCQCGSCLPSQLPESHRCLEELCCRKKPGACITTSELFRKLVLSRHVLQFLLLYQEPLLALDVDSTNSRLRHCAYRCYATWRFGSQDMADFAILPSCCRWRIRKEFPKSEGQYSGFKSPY

COc1cn(Cc2cc(F)c(F)c(F)c2)c(Nc2cccc(Cl)c2C)nc1=O [US10774051, Compound I-0004]
pIC50: > 8.00
